# From patent publication US20240148821A1, “PHARMACEUTICAL USE OF CYCLIC PEPTIDE COMPOUND” (CHUGAI SEIYAKU KABUSHIKI KAISHA, priority 2021, published 2024)
# Numbered stars: 1 amine (or outer) side, 2 acyl side, 3 side chain; on linkers, the order of the positions; unused ones are H or OH. Bridge positions count the residues as written; N and C are the ends. Square brackets hold non-standard residues; d marks the D form. Peptide text beside a SMILES is read from it. * marks the point of attachment. hPhe(3,5-F2-4-CF3) = N[C@@H](CCc1cc(F)c(C(F)(F)F)c(F)c1)C(=O)O; hPhe(3-Cl-4-CF3) = N[C@@H](CCc1ccc(C(F)(F)F)c(Cl)c1)C(=O)O; hPhe(3-F,4-CF3) = N[C@@H](CCc1ccc(C(F)(F)F)c(F)c1)C(=O)O; NMePhe(4-Me) = CN[C@@H](Cc1ccc(C)cc1)C(=O)O; NMedβ3hAla = C[C@H](CC(=O)[*:2])N(C)[*:1]; X72 = O=C([C@@H]1Cc2ccccc2N1[*:1])[*:2]; Phe(2-Cl) = N[C@@H](Cc1ccccc1Cl)C(=O)O; Phe(3-I) = N[C@@H](Cc1cccc(I)c1)C(=O)O; Pro(4,4-F2) = O=C(O)[C@@H]1CC(F)(F)CN1; NMeCha = CN[C@@H](CC1CCCCC1)C(=O)O; NMeChg = CN[C@H](C(=O)O)C1CCCCC1; NMeI = CC[C@H](C)[C@H](NC)C(=O)O; NMeD = CN[C@@H](CC(=O)O)C(=O)O; NMeL = CN[C@@H](CC(C)C)C(=O)O; NMeNva = CCC[C@H](NC)C(=O)O; NMeV = CN[C@H](C(=O)O)C(C)C; d(β3hA) = C[C@@H](N)CC(=O)O; NMeS = CN[C@@H](CO)C(=O)O; NMeA = CN[C@@H](C)C(=O)O; NMeAib = CNC(C)(C)C(=O)O; Piperidide = C1CCN(*)CC1; Pyrrolidide = C1CCN(*)C1; Ac5c = NC1(C(=O)O)CCCC1; Aze = O=C(O)[C@@H]1CCN1; Thp = NC1(C(=O)O)CCOCC1; Abu = CC[C@H](N)C(=O)O; CH2CMe2OH = CC(C)(O)C*; Ac3c = NC1(C(=O)O)CC1; Aib = CC(C)(N)C(=O)O; Isopentyl = CC(C)CC*; NEtG = CCNCC(=O)O; Sar = CNCC(=O)O
# Test system: Human pancreatic cancer cell line AsPC-1 (G12D mutation Kras)
# Test: AsPC-1 cell growth inhibition (AsPC-1 CGI)
# Type: cell-based
# Details: read-out: AsPC-1 cell growth inhibition, 50% growth inhibitory concentration (IC50 value); 96 hours, CellTiter-Glo, values classified in ranges
# Protocol: Test compounds were serially dilated with dimethyl sulfoxide, and 200 nL was then dispensed to a U-bottom 96-well plate using Labcyte Echo. […] The cell suspension was dispensed to a. plate containing a test compound at 100 μL per well and incubated at 37° C. in a 5% carbon dioxide gas incubator. 96 hours later, 80 μL of CellTiter-Glo (Promega) was added to each well and fluorescence was measured.
row,SMILES,IC50 [µM]
1,"CCC[C@H]1C(=O)N[C@@H]([C@@H](C)CC)C(=O)N(C)CC(=O)N(C)CC(=O)N(C)[C@@H](CC2CCCCC2)C(=O)N(C)CC(=O)N[C@@H](CCc2ccc(C(F)(F)F)c(Cl)c2)C(=O)N2CC(F)(F)C[C@H]2C(=O)NC2(CCCC2)C(=O)N(C)[C@@H](C2CCCCC2)C(=O)N(C)[C@H](C(=O)N2CCCC2)CC(=O)N1C [Compound 1232] ([NMeNva]I[Sar][Sar][NMeCha][Sar][hPhe(3-Cl-4-CF3)][Pro(4,4-F2)][Ac5c][NMeChg][NMeD]-Pyrrolidide; lactam N-11)",≤ 0.02
2,"CC[C@H](C)[C@@H]1NC(=O)[C@H](CC(C)C)N(C)C(=O)C[C@@H](C)N(C)C(=O)[C@H](CC(C)C)N(C)C(=O)C2(CCOCC2)NC(=O)[C@@H]2CCCN2C(=O)[C@H](CCc2ccc(C(F)(F)F)c(F)c2)NC(=O)CN(C)C(=O)[C@H](CC2CCCCC2)N(C)C(=O)CN(C)C(=O)CN(C)C1=O [Compound 407] (cyclo(I[Sar][Sar][NMeCha][Sar][hPhe(3-F,4-CF3)]P[Thp][NMeL][NMedβ3hAla][NMeL]))",> 0.5
3,CC[C@H](C)[C@@H]1NC(=O)[C@H](CC(C)C)N(C)C(=O)C[C@@H](C(=O)N(C)C)N(C)C(=O)[C@H]([C@@H](C)CC)N(C)C(=O)C2(CCCC2)NC(=O)[C@@H]2CCCN2C(=O)[C@H](CCc2ccc(C(F)(F)F)c(Cl)c2)NC(=O)CN(C)C(=O)[C@H](CC2CCCCC2)N(C)C(=O)[C@@H]2CCN2C(=O)[C@H](C)N(C)C1=O [Compound 1858] ([NMeL]I[NMeA][Aze][NMeCha][Sar][hPhe(3-Cl-4-CF3)]P[Ac5c][NMeI][NMeD]-NMe2; lactam N-11),≤ 0.02
4,"CCC[C@H]1C(=O)N[C@@H]([C@@H](C)CC)C(=O)N(C)CC(=O)N(C)CC(=O)N(C)[C@@H](Cc2ccc(C)cc2)C(=O)N(C)CC(=O)N[C@@H](CCc2cc(F)c(C(F)(F)F)c(F)c2)C(=O)N2CC(F)(F)C[C@H]2C(=O)NC2(CCCC2)C(=O)N(C)[C@@H](C2CCCCC2)C(=O)N(C)[C@H](C(=O)N2CCCC2)CC(=O)N1C [Compound 1306] ([NMeNva]I[Sar][Sar][NMePhe(4-Me)][Sar][hPhe(3,5-F2-4-CF3)][Pro(4,4-F2)][Ac5c][NMeChg][NMeD]-Pyrrolidide; lactam N-11)",≤ 0.02
5,CC[C@@H]1NC(=O)[C@H](CC(C)C)N(C)C(=O)C[C@@H](C(=O)N2CCCCC2)N(C)C(=O)[C@H](C2CCCCC2)N(C)C(=O)C2(CCCC2)NC(=O)[C@@H]2CCCN2C(=O)[C@H](CCc2ccc(C(F)(F)F)c(Cl)c2)NC(=O)CN(C)C(=O)[C@H](CC2CCCCC2)N(C)C(=O)CN(C)C(=O)CN(C)C1=O [Compound 1775] ([NMeL][Abu][Sar][Sar][NMeCha][Sar][hPhe(3-Cl-4-CF3)]P[Ac5c][NMeChg][NMeD]-Piperidide; lactam N-11),> 0.5
6,CC[C@H](C)[C@@H]1NC(=O)[C@H](CC(C)C)N(C)C(=O)C[C@@H](C(=O)N2CCCCC2)N(C)C(=O)[C@H](CC(C)C)NC(=O)C(C)(C)N(C)C(=O)[C@H](Cc2ccccc2Cl)NC(=O)[C@H](Cc2cccc(I)c2)NC(=O)CN(C)C(=O)[C@H](Cc2ccc(C)cc2)N(C)C(=O)[C@@H]2CCN2C(=O)CN(C)C1=O [Compound 781] ([NMeL]I[Sar][Aze][NMePhe(4-Me)][Sar][Phe(3-I)][Phe(2-Cl)][NMeAib]L[NMeD]-Piperidide; lactam N-11),> 0.5
7,CC[C@H](C)[C@@H]1NC(=O)[C@H](CC(C)C)N(C)C(=O)C[C@@H](C(=O)N2CCCCC2)N(C)C(=O)[C@H](C2CCCCC2)N(C)C(=O)C2(CCCC2)NC(=O)[C@@H]2Cc3ccccc3N2C(=O)[C@H](CCc2ccc(C(F)(F)F)c(Cl)c2)NC(=O)CN(C)C(=O)[C@H](CC2CCCCC2)N(C)C(=O)[C@@H]2CCN2C(=O)[C@H](C)N(C)C1=O [Compound 812] ([NMeL]I[NMeA][Aze][NMeCha][Sar][hPhe(3-Cl-4-CF3)][X72][Ac5c][NMeChg][NMeD]-Piperidide; lactam N-11),> 0.5
8,CC[C@H](C)[C@@H]1NC(=O)[C@H](CC(C)C)N(C)C(=O)C[C@@H](C)NC(=O)[C@H](CC(C)C)N(C)C(=O)C(C)(C)NC(=O)[C@H](COCC(C)(C)O)N(C)C(=O)[C@H](CCc2ccc(C(F)(F)F)c(Cl)c2)NC(=O)CN(C)C(=O)[C@H](COCCC(C)C)N(C)C(=O)CN(CC)C(=O)CN(C)C1=O [Compound 1484] (cyclo([Aib][NMeL][d(β3hA)][NMeL]I[Sar][NEtG][NMeS](Isopentyl)[Sar][hPhe(3-Cl-4-CF3)][NMeS](CH2CMe2OH))),> 0.5
9,CC[C@H](C)[C@@H]1NC(=O)[C@H](CC(C)C)N(C)C(=O)C[C@@H](C)NC(=O)[C@H](C(C)C)N(C)C(=O)C2(CCCC2)NC(=O)[C@@H]2CCCN2C(=O)[C@H](CCc2ccc(C(F)(F)F)c(Cl)c2)NC(=O)CN(C)C(=O)[C@H](CC2CCCCC2)N(C)C(=O)CN(C)C(=O)[C@@H]2CCN2C1=O [Compound 1020] (cyclo([Ac5c][NMeV][d(β3hA)][NMeL]I[Aze][Sar][NMeCha][Sar][hPhe(3-Cl-4-CF3)]P)),> 0.5
10,CC[C@H](C)[C@@H]1NC(=O)[C@H](CC(C)C)N(C)C(=O)C[C@@H](C)N(C)C(=O)[C@H](C(C)C)N(C)C(=O)C2(CC2)NC(=O)[C@@H]2CCCN2C(=O)[C@H](CCc2ccc(C(F)(F)F)c(Cl)c2)NC(=O)CN(C)C(=O)[C@H](CC2CCCCC2)N(C)C(=O)CN(C)C(=O)CN(C)C1=O [Compound 268] (cyclo([Ac3c][NMeV][NMedβ3hAla][NMeL]I[Sar][Sar][NMeCha][Sar][hPhe(3-Cl-4-CF3)]P)),> 0.5
